Reference: patent publication US20230069712A1, “COMPOUNDS FOR THE INDUCTION OF ANTIGEN-SPECIFIC IMMUNE TOLERANCE” (Anokion SA, priority 2019, published 2023)
No end group written: not given here.

Test system: multiple sclerosis pathology (EAE disease)
Assay: Mouse experimental autoimmune encephalomyelitis (EAE) model
Type: in vivo, mice
Conditions: intravenous injection on day 0, 3, and 6; adoptive transfer of MOG35-55-reactive T cells
Source text: Myelin oligodendrocyte glycoprotein (MOG) 30-60 is a fragment of an autoantigen that is associated with multiple sclerosis that is used herein as a non-limiting example of an immunogenic fragment of MOG. […] To induce multiple sclerosis pathology (EAE disease), recipient mice were adoptively transferred on day 0 with MOG35-55-reactive T cells obtained from a separate, previously-vaccinated donor mouse. On day 0, 3, and 6, mice received via intravenous injection of either MOG30-60 peptide, MOG-30-60 peptide chemically conjugated to pGal (LT-MOG-30-60), or saline; an additional control group received administrations of a monoclonal antibody that binds VLA-4 (integrin alpha 4 beta 1). Multiple sclerosis pathology was assessed and scored daily by a pharmacology expert blinded to group identities. […] It shall be appreciated that, according to additional embodiments disclosed herein, other immunogenic fragments of MOG are effective in inducing tolerance to MOG, and thus treatment of MS.

Row | Substance | protection from multiple sclerosis pathology (EAE disease), daily score
1 | MOG30-60: Myelin oligodendrocyte glycoprotein (MOG) 30-60 peptide, SEQ ID NO: 30, administered alone (KNATGMEVGWYRSPFSRVVHLYRNGKDQDAE; MOG 30-60; listed as Homo sapiens) | not substantively protected from disease
2 | pGal-MOG30-60: MOG-30-60 peptide chemically conjugated to pGal (e.g., Polymer B) (KNATGMEVGWYRSPFSRVVHLYRNGKDQDAE; also: chemically conjugated to pGal polymer (e.g. Polymer B), site not given here; UniProt Q61885 58-88, looked up, fragment) | protected from multiple sclerosis pathology (EAE disease)
